Data published in PMC6437697 (Journal of Medicinal Chemistry, 2019).

Legend:
Assay in all cases: KINOMEscan
Assay type in all cases: binding
Conditions in all cases: read-out: % control activity remaining
GSK3B = target: T1, GSK3B (Homo sapiens, UniProt P49841)
T1 construct: purchased Eurofins DiscoverX KINOMEscan

QSK = target: T2, QSK (Homo sapiens, UniProt Q9Y2K2)
T2 construct: purchased Eurofins DiscoverX KINOMEscan

RET(V804M) = target: T3, RET(V804M) (Homo sapiens, UniProt P07949, V804M)
T3 construct: purchased Eurofins DiscoverX KINOMEscan

ADCK4 = target: T4, ADCK4 (Homo sapiens, UniProt Q96D53)
T4 construct: purchased Eurofins DiscoverX KINOMEscan
T4 sequence (Q96D53 1-544): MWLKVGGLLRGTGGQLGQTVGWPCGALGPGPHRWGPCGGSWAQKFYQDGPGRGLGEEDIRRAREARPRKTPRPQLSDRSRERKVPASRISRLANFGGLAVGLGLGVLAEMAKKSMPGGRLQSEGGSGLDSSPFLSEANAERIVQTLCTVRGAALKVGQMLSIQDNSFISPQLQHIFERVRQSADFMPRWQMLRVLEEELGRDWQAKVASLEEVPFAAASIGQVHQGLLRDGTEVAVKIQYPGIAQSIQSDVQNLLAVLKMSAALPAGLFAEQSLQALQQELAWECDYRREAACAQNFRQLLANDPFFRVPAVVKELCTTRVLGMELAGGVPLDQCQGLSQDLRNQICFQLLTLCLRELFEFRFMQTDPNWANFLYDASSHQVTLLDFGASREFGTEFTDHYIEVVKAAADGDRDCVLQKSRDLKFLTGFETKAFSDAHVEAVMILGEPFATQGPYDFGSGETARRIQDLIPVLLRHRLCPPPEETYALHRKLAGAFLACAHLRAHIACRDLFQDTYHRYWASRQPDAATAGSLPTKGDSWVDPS

MRCKA = target: T5, MRCKA (Homo sapiens, UniProt Q5VT25)
T5 construct: purchased Eurofins DiscoverX KINOMEscan

MARK1 = target: T6, MARK1 (Homo sapiens, UniProt Q9P0L2)
T6 construct: purchased Eurofins DiscoverX KINOMEscan

[1] = target: T7, ABL1(H396P)-phosphorylated (Homo sapiens, UniProt P00519, H396P)
T7 construct: purchased Eurofins DiscoverX KINOMEscan

ERN1 = target: T8, ERN1 (Homo sapiens, UniProt O75460)
T8 construct: purchased Eurofins DiscoverX KINOMEscan

NEK7 = target: T9, NEK7 (Homo sapiens, UniProt Q8TDX7)
T9 construct: purchased Eurofins DiscoverX KINOMEscan

MYLK4 = target: T10, MYLK4 (Homo sapiens, UniProt Q86YV6)
T10 construct: purchased Eurofins DiscoverX KINOMEscan
T10 sequence (Q86YV6 1-388): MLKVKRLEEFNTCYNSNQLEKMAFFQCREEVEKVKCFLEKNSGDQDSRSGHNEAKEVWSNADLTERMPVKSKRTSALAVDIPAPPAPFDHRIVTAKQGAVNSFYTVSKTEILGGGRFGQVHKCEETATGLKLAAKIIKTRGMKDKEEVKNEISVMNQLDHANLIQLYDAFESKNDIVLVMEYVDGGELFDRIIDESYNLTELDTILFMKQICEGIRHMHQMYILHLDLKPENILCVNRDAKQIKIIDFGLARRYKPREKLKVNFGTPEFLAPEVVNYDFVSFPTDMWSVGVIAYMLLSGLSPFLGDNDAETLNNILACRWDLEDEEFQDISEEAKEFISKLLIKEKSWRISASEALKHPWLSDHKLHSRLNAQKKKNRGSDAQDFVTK

NDR2 = target: T11, NDR2 (Homo sapiens, UniProt Q9Y2H1)
T11 construct: purchased Eurofins DiscoverX KINOMEscan

FLT3(R834Q) = target: T12, FLT3(R834Q) (Homo sapiens, UniProt P36888, R834Q)
T12 construct: purchased Eurofins DiscoverX KINOMEscan
T12 sequence (P36888 27-993 R834Q): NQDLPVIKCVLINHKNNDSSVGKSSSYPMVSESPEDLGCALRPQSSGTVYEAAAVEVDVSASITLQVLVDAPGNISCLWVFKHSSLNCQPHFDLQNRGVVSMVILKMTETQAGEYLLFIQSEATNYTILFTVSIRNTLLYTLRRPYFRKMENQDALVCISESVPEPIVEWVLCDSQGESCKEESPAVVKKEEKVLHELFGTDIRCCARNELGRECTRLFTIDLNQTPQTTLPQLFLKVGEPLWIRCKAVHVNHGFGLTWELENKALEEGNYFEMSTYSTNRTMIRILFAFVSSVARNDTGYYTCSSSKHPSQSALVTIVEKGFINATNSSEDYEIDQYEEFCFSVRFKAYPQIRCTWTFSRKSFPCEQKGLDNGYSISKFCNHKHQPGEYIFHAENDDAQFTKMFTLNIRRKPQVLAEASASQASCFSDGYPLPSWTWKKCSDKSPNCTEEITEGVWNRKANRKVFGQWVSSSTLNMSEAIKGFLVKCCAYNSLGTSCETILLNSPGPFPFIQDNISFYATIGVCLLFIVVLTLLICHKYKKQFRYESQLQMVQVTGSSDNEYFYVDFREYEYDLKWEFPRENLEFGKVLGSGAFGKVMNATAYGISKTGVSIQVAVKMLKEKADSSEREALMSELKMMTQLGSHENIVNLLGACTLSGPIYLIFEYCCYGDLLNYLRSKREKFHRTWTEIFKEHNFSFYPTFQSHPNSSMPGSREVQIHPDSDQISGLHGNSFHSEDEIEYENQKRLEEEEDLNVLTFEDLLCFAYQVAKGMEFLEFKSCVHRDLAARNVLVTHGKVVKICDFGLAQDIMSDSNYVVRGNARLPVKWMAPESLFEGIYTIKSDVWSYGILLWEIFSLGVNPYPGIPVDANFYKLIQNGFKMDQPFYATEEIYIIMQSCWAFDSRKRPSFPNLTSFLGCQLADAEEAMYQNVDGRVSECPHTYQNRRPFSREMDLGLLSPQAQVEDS

T5 sequence (Q5VT25 whole entry): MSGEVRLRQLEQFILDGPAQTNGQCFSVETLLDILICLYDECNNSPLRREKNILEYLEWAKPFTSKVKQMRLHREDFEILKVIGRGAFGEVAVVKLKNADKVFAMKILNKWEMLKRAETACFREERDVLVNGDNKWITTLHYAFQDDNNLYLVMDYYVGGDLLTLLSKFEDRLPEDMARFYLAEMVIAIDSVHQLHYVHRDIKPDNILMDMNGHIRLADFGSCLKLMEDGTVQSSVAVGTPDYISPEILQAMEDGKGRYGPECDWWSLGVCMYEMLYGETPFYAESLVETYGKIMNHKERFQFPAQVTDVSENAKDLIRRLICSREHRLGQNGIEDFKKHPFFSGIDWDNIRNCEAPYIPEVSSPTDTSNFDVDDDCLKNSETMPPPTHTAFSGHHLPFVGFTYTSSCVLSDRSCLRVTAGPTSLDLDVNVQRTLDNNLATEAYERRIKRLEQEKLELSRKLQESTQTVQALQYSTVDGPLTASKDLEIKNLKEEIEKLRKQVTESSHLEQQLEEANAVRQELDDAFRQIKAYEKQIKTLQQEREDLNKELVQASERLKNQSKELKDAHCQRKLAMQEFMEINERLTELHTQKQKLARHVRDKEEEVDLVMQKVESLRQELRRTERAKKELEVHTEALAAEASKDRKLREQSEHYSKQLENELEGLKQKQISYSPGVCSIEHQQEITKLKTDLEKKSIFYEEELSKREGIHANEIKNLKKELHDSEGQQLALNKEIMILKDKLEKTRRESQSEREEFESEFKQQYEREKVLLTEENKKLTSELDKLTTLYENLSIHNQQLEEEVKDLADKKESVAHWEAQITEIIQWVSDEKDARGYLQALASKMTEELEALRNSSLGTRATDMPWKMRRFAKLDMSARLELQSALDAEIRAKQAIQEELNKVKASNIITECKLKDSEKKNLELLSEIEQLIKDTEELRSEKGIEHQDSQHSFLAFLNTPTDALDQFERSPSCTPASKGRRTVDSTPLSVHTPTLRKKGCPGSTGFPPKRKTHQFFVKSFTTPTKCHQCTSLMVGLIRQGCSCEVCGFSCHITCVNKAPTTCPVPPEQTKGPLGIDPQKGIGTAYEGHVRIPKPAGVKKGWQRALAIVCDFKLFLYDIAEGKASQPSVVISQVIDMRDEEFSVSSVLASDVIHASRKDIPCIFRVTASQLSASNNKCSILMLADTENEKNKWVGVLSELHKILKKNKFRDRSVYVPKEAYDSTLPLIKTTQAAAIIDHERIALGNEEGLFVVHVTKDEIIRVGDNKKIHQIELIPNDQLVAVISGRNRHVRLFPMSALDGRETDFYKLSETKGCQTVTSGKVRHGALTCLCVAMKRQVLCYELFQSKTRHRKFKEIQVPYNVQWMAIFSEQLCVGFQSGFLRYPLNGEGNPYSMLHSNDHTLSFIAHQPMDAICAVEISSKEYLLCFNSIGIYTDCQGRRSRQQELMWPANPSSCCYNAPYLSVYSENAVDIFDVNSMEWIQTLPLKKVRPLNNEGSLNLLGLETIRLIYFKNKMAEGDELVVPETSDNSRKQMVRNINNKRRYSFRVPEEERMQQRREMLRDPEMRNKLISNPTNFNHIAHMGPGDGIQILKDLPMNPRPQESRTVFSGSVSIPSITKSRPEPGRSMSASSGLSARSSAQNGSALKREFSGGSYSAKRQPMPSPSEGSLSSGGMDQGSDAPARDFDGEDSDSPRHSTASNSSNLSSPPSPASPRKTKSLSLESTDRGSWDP
T8 sequence (O75460 19-977): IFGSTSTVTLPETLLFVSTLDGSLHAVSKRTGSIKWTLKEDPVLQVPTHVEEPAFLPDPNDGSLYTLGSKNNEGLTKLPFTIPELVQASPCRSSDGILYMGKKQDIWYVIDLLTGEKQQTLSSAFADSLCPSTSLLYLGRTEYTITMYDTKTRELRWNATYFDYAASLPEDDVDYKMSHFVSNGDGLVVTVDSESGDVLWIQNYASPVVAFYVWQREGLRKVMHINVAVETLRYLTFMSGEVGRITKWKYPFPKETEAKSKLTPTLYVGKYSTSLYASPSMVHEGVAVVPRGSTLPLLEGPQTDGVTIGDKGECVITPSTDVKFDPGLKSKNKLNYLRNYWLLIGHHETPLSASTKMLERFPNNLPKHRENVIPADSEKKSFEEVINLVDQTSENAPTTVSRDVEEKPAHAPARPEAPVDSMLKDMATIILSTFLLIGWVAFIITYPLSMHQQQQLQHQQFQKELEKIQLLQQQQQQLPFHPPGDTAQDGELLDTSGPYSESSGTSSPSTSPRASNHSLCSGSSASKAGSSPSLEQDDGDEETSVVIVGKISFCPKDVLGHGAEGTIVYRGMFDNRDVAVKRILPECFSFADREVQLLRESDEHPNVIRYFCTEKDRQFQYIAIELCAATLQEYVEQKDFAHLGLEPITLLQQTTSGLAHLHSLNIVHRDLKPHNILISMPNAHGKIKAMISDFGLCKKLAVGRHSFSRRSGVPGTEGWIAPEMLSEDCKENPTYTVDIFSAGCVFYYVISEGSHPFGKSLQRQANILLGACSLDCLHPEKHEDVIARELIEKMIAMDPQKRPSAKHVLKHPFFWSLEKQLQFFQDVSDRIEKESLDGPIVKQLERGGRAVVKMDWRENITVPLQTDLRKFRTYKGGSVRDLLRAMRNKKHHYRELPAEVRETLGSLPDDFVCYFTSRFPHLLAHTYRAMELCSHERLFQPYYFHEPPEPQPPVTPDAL
T2 sequence (Q9Y2K2 whole entry): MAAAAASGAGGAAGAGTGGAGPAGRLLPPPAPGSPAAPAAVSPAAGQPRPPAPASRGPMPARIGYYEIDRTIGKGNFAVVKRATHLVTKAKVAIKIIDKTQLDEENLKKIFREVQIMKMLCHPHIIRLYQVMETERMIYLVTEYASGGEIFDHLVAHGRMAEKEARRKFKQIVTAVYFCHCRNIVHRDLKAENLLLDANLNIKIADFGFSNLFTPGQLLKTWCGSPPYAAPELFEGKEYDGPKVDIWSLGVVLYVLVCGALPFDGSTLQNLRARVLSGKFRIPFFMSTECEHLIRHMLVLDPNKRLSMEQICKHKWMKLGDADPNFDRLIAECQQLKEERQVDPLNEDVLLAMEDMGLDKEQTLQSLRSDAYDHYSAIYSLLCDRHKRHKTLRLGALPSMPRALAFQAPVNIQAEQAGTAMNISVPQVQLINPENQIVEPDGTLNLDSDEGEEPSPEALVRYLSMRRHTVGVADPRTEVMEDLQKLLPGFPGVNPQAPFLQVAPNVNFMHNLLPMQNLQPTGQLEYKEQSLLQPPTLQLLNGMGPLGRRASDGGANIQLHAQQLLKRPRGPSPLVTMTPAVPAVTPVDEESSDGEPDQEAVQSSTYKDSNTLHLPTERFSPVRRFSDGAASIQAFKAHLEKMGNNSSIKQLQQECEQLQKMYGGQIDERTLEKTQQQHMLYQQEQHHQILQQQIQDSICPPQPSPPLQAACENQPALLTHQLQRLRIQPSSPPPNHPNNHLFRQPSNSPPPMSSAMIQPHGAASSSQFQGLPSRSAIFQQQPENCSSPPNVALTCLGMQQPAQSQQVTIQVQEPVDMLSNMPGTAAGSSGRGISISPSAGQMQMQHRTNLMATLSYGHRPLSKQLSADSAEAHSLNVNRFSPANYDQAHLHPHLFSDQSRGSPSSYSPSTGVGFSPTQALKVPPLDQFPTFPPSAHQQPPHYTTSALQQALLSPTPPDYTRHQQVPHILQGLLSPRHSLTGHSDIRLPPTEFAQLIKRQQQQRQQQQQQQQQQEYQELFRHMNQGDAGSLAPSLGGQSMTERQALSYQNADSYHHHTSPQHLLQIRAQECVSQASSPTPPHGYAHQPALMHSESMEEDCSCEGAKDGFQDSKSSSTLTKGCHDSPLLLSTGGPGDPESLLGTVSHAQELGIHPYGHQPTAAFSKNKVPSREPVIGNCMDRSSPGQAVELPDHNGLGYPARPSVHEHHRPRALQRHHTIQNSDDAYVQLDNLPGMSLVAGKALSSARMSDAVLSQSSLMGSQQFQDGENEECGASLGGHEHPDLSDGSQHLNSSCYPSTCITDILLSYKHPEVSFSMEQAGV
T11 sequence (Q9Y2H1 whole entry): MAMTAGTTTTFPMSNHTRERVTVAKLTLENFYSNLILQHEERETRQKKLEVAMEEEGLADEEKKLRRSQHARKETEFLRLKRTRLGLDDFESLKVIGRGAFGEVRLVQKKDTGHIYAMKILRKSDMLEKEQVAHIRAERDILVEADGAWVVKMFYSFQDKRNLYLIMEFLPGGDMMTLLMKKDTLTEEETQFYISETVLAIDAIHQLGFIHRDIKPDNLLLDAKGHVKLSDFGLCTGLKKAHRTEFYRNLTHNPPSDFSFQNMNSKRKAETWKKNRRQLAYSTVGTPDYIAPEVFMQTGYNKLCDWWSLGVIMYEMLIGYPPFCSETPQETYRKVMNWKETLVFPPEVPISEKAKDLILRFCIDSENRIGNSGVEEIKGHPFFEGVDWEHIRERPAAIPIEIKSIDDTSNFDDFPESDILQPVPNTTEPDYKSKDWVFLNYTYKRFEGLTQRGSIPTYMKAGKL
T9 sequence (Q8TDX7 whole entry): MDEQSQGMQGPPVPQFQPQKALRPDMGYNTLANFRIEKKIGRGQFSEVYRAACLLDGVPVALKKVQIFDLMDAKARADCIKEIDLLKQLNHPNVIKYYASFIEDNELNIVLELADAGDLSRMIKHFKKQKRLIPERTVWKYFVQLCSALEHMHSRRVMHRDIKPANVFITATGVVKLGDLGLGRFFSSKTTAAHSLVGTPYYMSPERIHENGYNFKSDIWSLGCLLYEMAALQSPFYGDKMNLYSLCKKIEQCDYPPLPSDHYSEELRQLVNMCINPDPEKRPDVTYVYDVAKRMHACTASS

SMILES	remaining binding at 1 µM (GSK3B) [%]	remaining binding at 1 µM (QSK) [%]	remaining binding at 1 µM (RET(V804M)) [%]	remaining binding at 1 µM (ADCK4) [%]	remaining binding at 1 µM (MRCKA) [%]	remaining binding at 1 µM (MARK1) [%]	remaining binding at 1 µM [1] [%]	remaining binding at 1 µM (ERN1) [%]	remaining binding at 1 µM (NEK7) [%]	remaining binding at 1 µM (MYLK4) [%]	remaining binding at 1 µM (NDR2) [%]	remaining binding at 1 µM (FLT3(R834Q)) [%]
Clc1cc(NCC2CC2)c2ncc(-c3ccc4[nH]ncc4c3)n2n1 [compound 2, 6-Chloro-N-(cyclopropylmethyl)-3-(1H-indazol-5-yl)imidazo[1,2-b]pyridazin-8-amine]	99	78	97	93	90	86	73	69	97	67	94	94
O=C(CN1CCOCC1)N[C@H]1CC[C@H](Nc2cc(Cl)nn3c(-c4ccc5[nH]ncc5c4)cnc23)CC1 [compound 26]	92	82	82	84	82	94	46	41	99	24	94	0.7
CN1CCC(CNc2cc(Cl)nn3c(-c4cc5nc(Nc6ccccc6)[nH]c5cc4F)cnc23)CC1 [compound 31, 6-Chloro-3-(6-fluoro-2-(phenylamino)-1H-benzo[d]imidazol-5-yl)-N-((1-methylpiperidin-4-yl)methyl)imidazo[1,2-b]pyridazin-8-amine]	96	100	100	77	97	94	67	33	94	91	100	100
